Measurements published in patent US20020072485A1, “Prophylactic use of N-methyl-D-aspartate (NMDA) antagonists” (priority 2000, published 2002).

Experiments:
[1] = test system: static and dynamic allodynia in rats (paw incision model); experiment: Paw incision model for surgical pain, post-surgery administration; type: in vivo, rat
Source text: (§1) Basically, in this animal model, an incision is made in the hind paw of the rats, which induces a reproducible and quantifiable mechanical hyperalgesia in the rats lasting several days. Rats are anesthetized, and the plantar surface of the right hind paw of each rat is incised through the skin and fascia. The wound is then closed, for example with sutures, and allowed to heal. The rats are placed into wire mesh bottom cages, allowing access to the underside of their paws. After habituation, tactile allodynia (or “static allodynia”) can be evaluated by touching the right hind paw plantar surface with von Frey hairs in ascending order of force (measured in grams) until a paw-withdrawal response (paw withdrawal threshold or “PWT”) is elicited. Dynamic allodynia can be evaluated by stoking the plantar surface of the right hind paw and measuring (in seconds) the amount of time it takes for a rat to withdraw its paw (paw withdrawal latency or “PWL”).
CP-101,606 was also tested post-surgically using the paw incision model, basically as described above. However, in this assay, rats are administered CP-101,606 (3, 10, or 30 mg/kg, s.c.), pregabalin (30 mg/kg, s.c.), or vehicle (s.c.) post-incision. A baseline is measured before incision and after incision, prior to drug. […] CP-101,606 produced a full reversal of static allodynia and a partial (approximately 40%) reversal of the dynamic subtype.

[2] = test system: static and dynamic allodynia in rats (paw incision model); experiment: Paw incision model for surgical pain, pre-surgery administration; type: in vivo, rat; conditions: for PWL (paw withdrawal latency) compared to vehicle / PWT (paw withdrawal threshold) compared to vehicle: 72 hours, pre-surgical 10 and 30 mg/kg CP-101,606, pregabalin 30 mg/kg s.c.
Source text: as §1
In the pre-surgery administration assay, a PWT and PWL baseline is measured prior to drug administration and incision. The rats are then given drug (CP-101,606, at separate doses of 3, 10 or 30 mg/kg s.c.) or are given pregabalin (30 mg/kg s.c., as a positive control)), or vehicle (s.c.). The right hind paw each rat is then incised as described above. Measurements are then taken periodically, as described above.

[3] = target: NMDA receptors comprised of NR1/NR2B subunits (Homo sapiens, UniProt Q05586+Q13224); conditions: selectivity between NMDA receptor subtypes; cited from earlier work
Sequence of NMDA receptors comprised of NR1/NR2B subunits (Q13224 27-1484, other chains not shown): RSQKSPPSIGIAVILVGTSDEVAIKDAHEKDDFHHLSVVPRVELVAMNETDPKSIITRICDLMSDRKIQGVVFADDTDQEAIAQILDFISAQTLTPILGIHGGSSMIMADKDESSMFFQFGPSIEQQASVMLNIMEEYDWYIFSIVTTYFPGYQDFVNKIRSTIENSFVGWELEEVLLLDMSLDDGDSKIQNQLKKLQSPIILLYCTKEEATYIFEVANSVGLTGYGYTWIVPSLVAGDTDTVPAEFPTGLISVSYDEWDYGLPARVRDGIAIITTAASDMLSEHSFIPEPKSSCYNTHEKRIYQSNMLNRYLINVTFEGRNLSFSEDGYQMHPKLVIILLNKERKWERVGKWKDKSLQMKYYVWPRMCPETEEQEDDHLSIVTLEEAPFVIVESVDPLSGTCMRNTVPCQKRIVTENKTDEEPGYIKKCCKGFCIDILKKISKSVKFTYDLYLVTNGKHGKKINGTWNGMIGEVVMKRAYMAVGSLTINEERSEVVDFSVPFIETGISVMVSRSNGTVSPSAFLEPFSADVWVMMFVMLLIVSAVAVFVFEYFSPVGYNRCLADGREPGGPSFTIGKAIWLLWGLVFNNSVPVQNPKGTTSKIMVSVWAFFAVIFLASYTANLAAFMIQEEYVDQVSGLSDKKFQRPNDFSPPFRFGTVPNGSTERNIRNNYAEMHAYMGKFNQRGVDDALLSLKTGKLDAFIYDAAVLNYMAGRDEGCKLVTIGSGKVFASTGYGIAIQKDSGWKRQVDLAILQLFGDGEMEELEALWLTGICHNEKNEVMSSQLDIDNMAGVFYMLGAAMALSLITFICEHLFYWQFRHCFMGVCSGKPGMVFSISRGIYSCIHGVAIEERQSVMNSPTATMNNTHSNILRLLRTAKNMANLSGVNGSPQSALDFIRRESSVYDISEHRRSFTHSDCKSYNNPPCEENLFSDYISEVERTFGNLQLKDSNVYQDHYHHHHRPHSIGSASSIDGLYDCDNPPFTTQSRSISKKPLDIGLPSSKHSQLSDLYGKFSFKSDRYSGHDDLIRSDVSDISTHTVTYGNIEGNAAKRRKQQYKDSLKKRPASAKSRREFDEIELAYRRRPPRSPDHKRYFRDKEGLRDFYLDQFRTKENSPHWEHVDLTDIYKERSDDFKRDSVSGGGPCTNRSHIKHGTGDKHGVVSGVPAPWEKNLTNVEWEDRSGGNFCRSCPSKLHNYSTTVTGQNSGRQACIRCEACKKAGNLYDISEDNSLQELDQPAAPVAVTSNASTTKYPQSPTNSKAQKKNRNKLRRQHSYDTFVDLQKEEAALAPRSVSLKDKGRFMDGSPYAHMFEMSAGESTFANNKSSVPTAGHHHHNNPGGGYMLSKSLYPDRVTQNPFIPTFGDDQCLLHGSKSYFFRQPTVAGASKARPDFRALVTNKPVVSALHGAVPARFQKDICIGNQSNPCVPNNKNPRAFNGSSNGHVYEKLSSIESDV

[4] = test system: animal models of pain perception; conditions: literature (Bernardi 1996; Taniguchi 1997); cited from earlier work
[5] = post-incision administration, 30 mg/kg s.c.
[6] = post-incision administration, s.c.
[7] = pre-surgery administration, 30 mg/kg s.c.
[8] = pre-surgery administration, s.c.

Compound: Oc1ccc2c(c1)OC[C@@H](N1CCC(O)(c3ccc(F)cc3)CC1)[C@H]2O (relative stereo)
- melting point: 159 to 160 °C

Compound: C[C@@H]([C@@H](O)c1ccc(O)cc1)N1CCC(O)(c2ccccc2)CC1 [CP-101,606, (+)-(1S, 2S)-1-(4-hydroxy-phenyl)-2-(4-hydroxy-4-phenylpiperidino)-1-propanol]
- duration of effect, dynamic allodynia [1, 5]: two
- duration of effect, static allodynia [1, 5]: three
- time of peak effect, dynamic allodynia [1, 5]: two
- effect on static and dynamic subtypes of allodynia ([1]; post-incision administration, 3, 10 or 30 mg/kg s.c., rats): dose-dependently diminished both static and dynamic subtypes of allodynia
- MED, dynamic allodynia [1, 6]: 30 mg/kg
- MED, static allodynia [1, 6]: 10 mg/kg
- reversal of static allodynia [1, 6]: full reversal
- reversal of dynamic allodynia ([1]; post-incision administration, s.c., partial reversal): approximately 40%
- PWL (paw withdrawal latency) compared to vehicle [2]: longer
- PWT (paw withdrawal threshold) compared to vehicle [2]: higher
- duration of antiallodynic action ([2]; following pre-surgical administration): at least 48 hours
- latest time at which a preventive effect was seen ([2]; post surgery, pre-surgical administration): 72 h
- time of peak effect, dynamic allodynia [2, 7]: two
- time of peak effect, static allodynia [2, 7]: two
- effect on static and dynamic subtypes of allodynia ([2]; pre-surgery administration, 3, 10 or 30 mg/kg s.c., rats): dose-dependently blocked both static and dynamic subtypes of allodynia
- blockade of dynamic allodynia [2, 8]: near full blockade
- blockade of static allodynia [2, 8]: full blockade
- MED (minimum effective dosage), dynamic allodynia ([2]; pre-surgery administration, s.c., PWL): 10 mg/kg
- MED (minimum effective dosage), static allodynia ([2]; pre-surgery administration, s.c., PWT (von Frey hairs)): 10 mg/kg

Compound: CC(C(O)c1ccc(O)cc1)N1CCC(Cc2ccccc2)CC1 (stereo not drawn) [Ifenprodil, ifenprodil]
- blockade of ion current, NR1/NR2B compared to NR1/NR2A, NR2C, or NR2D subunits [3]: more potent and efficacious
- analgesic activity [4]: significant analgesic activity

Compound: CC(C)C[C@H](CN)CC(=O)O [pregabalin, reference compound]
- PWL (paw withdrawal latency) compared to vehicle [2]: longer
- PWT (paw withdrawal threshold) compared to vehicle [2]: higher
